Experimental data from patent US4160839A, “Carbamyltriazole insecticides” (priority 1976, dated 1979).

Columns and labels:
[1] = tested on: southern armyworm (SA) larvae; assay: Spray test, southern armyworm (SA) larvae on bean leaves; assay type: in vivo; settings: approx. 48 h after spraying
Experimental: (§1) Three 5 oz paper cups containing Henderson dwarf lima bean plants and one 5 oz paper cup containing Orange Gem nasturtiums, all growing in vermiculite, are placed on a turntable and sprayed to thorough wetness with 25 ml of a solution of the candidate chemical at the appropriate concentration. Nasturtiums were already infested with 50-100 bean aphids (BA). A bean plant in one paper cup was already infested with 50-100 two-spotted mites (TSM). Leaves from the two remaining bean plants are removed following spraying and placed in disposable petri dishes with 5 southern armyworm (SA) larvae in one petri dish, and 5 Mexican bean beetle (MBB) larvae in the other petri dish. The rating is done approximately 48 hours after spraying as follows:
(§2) So as to obtain more meaningful results, all tests are performed at the same time of day, whenever possible, usually in the forenoon. Temperature,illumination and humidity are the same in all tests. Atmospheric pressure is not controlled.
(§3) Results obtained with the novel insecticides of this invention at various concentrations of active chemical are tabulated below. The ratings given are for averages of three or more replicates. The oral lethal dose for 50 percent kill of laboratory rats is also recorded in the table. In conducting the toxicity tests on rats, 0.01 g of active chemical per ml in corn oil is employed as an additive to the diet of the animals.

two-spotted mites (TSM) = assay: Spray test, two-spotted mites (TSM) on bean plants; assay type: in vivo; settings: approx. 48 h after spraying
Experimental: as §1, §2, §3

[2] = tested on: Southern Corn Rootworm (SCR); assay: Southern Corn Rootworm (SCR) soil treatment test, root feeding damage on corn; assay type: in vivo; set-up: scale not given here; settings: nine days after treatment
Experimental: Three 5 oz paper cups planted each with one kernel of DeKalb XL-361 corn are treated two days after planting with 10 ml of a 125 ppm solution of the candidate compound. Compounds with high efficacy are treated at lower concentrations. The experiment is a 4×5 factorial in a randomized complete block design with three replications. The tests are evaluated nine days after treatment. The roots are inspected under a dissecting microscope and rated as follows:
as §2, §3

[3] = tested on: Mexican bean beetle (MBB) larvae; assay: Spray test, Mexican bean beetle (MBB) larvae on bean leaves; assay type: in vivo; settings: approx. 48 h after spraying
Experimental: as §1, §2, §3

bean aphids (BA) = assay: Spray test, bean aphids (BA) on nasturtiums; assay type: in vivo; settings: approx. 48 h after spraying
Experimental: as §1, §2, §3

[4] = Oral toxicity test on laboratory rats; settings: rat, in vivo, in corn oil as additive to the diet, read-out: LD50 (oral lethal dose for 50 percent kill of laboratory rats)
Experimental: as §3

insects = assay: Insecticidal activity (general statement); settings: statement in words

| Compound | SA rating (larvae dead) ([1]; 15 ppm) | SA rating (larvae dead) ([1]; 31 ppm) | SA rating (larvae dead) ([1]; 62 ppm) | SA rating (larvae dead) ([1]; 500 ppm) | TSM rating (dead adults) (two-spotted mites (TSM); 500 ppm) | MBB rating (larvae dead) ([3]; 15 ppm) | MBB rating (larvae dead) ([3]; 31 ppm) | MBB rating (larvae dead) ([3]; 62 ppm) | MBB rating (larvae dead) ([3]; 125 ppm) | MBB rating (larvae dead) ([3]; 250 ppm) | MBB rating (larvae dead) ([3]; 500 ppm) | BA rating (dead) (bean aphids (BA); 4 ppm) | BA rating (dead) (bean aphids (BA); 8 ppm) | BA rating (dead) (bean aphids (BA); 15 ppm) | BA rating (dead) (bean aphids (BA); 31 ppm) | BA rating (dead) (bean aphids (BA); 62 ppm) | BA rating (dead) (bean aphids (BA); 125 ppm) | BA rating (dead) (bean aphids (BA); 250 ppm) | BA rating (dead) (bean aphids (BA); 500 ppm) | LD50 [4] [mg/kg] | other results |
| --- | --- | --- | --- | --- | --- | --- | --- | --- | --- | --- | --- | --- | --- | --- | --- | --- | --- | --- | --- | --- | --- |
| C=CCSc1nc(C(C)C)nn1C(=O)N(C)C [R=2-propenyl (allyl), R'=isopropyl] | 0 (no larvae dead) | 0 (no larvae dead) | 0 (no larvae dead) | 5 (100% larvae dead) | 0 (no dead adults) | 0 (no larvae dead) | 0 (no larvae dead) | 2 (26-50% larvae dead) | 5 (100% larvae dead) | 5 (100% larvae dead) | 5 (100% larvae dead) | 2 (26-50% dead) | 4 (76-99% dead) | 5 (100% dead) | 5 (100% dead) | 5 (100% dead) | 5 (100% dead) | 5 (100% dead) | 5 (100% dead) | 10 to 50 | SA rating (larvae dead) ([1]; 125 ppm): 0 (no larvae dead); SA rating (larvae dead) ([1]; 250 ppm): 0 (no larvae dead); SCR Rating (root feeding damage) ([2]; 3 ppm): 3.5; BA rating (dead) (bean aphids (BA); 2 ppm): 0 (none dead) |
| C#CCSc1nc(C2CCCCC2)nn1C(=O)N(C)C [1-N,N-dimethylcarbamyl-3-cyclohexyl-5-propargylthio-1,2,4-triazole] | – | – | – | – | – | – | – | – | – | – | – | – | – | – | – | – | – | – | – | – | insecticidal activity (insects): virtually useless as insecticides |
| C=CCSc1nc(C(C)(C)C)nn1C(=O)N(C)C [R=2-propenyl (allyl), R'=tert.butyl, 1-Dimethylcarbamyl-3-tert.butyl-5-allylthio-1H-1,2,4-triazole] | – | – | – | 1 (1-25% larvae dead) | 0 (no dead adults) | 0 (no larvae dead) | 0 (no larvae dead) | 1 (1 -25% larvae dead) | 5 (100% larvae dead) | 5 (100% larvae dead) | 5 (100% larvae dead) | 3 (51-75% dead) | 4 (76-99% dead) | 5 (100% dead) | 5 (100% dead) | 5 (100% dead) | 5 (100% dead) | 5 (100% dead) | 5 (100% dead) | 17 | SCR Rating (root feeding damage) ([2]; 25 ppm): 2.5; BA rating (dead) (bean aphids (BA); 2 ppm): 2 (26-50% dead) |
| C#CCSc1nc(C2CC2)nn1C(=O)N(C)C [R=2-propynyl (propargyl), R'=cyclopropyl] | 0 (no larvae dead) | 0 (no larvae dead) | 0 (no larvae dead) | 5 (100% larvae dead) | 5 (100% dead adults) | 1 (1 -25% larvae dead) | 1 (1 -25% larvae dead) | 3 (51-75% larvae dead) | 5 (100% larvae dead) | 5 (100% larvae dead) | 5 (100% larvae dead) | 3 (51-75% dead) | 5 (100% dead) | 5 (100% dead) | 5 (100% dead) | 5 (100% dead) | 5 (100% dead) | 5 (100% dead) | 5 (100% dead) | 10 | SA rating (larvae dead) ([1]; 125 ppm): 2 (26-50% larvae dead); SA rating (larvae dead) ([1]; 250 ppm): 4 (76-99% larvae dead); TSM rating (dead adults) (two-spotted mites (TSM); 15 ppm): 0 (no dead adults); TSM rating (dead adults) (two-spotted mites (TSM); 31 ppm): 0 (no dead adults); TSM rating (dead adults) (two-spotted mites (TSM); 62 ppm): 2 (26-50% dead adults); TSM rating (dead adults) (two-spotted mites (TSM); 125 ppm): 4 (76-99% dead adults); TSM rating (dead adults) (two-spotted mites (TSM); 250 ppm): 4 (76-99% dead adults); SCR Rating (root feeding damage) ([2]; 25 ppm): 1.3; SCR Rating (root feeding damage) ([2]; 50 ppm): 4.3; SCR Rating (root feeding damage) ([2]; 100 ppm): 4.3; BA rating (dead) (bean aphids (BA); 2 ppm): 1 (1-25% dead) |
| C#CCSc1nc(C(C)(C)C)nn1C(=O)N(C)C [R=2-propynyl, R'=tert.butyl] | 0 (no larvae dead) | 0 (no larvae dead) | 0 (no larvae dead) | 5 (100% larvae dead) | 1 (1-25% dead adults) | 4 (76-99% larvae dead) | 5 (100% larvae dead) | 5 (100% larvae dead) | 5 (100% larvae dead) | 5 (100% larvae dead) | 5 (100% larvae dead) | 5 (100% dead) | 5 (100% dead) | 5 (100% dead) | 5 (100% dead) | 5 (100% dead) | 5 (100% dead) | 5 (100% dead) | 5 (100% dead) | > 50 | SA rating (larvae dead) ([1]; 125 ppm): 2 (26-50% larvae dead); SA rating (larvae dead) ([1]; 250 ppm): 5 (100% larvae dead); SCR Rating (root feeding damage) ([2]; 6 ppm): 3.5; SCR Rating (root feeding damage) ([2]; 12 ppm): 4.5; MBB rating (larvae dead) ([3]; 4 ppm): 0 (no larvae dead); MBB rating (larvae dead) ([3]; 8 ppm): 0 (no larvae dead) |
